Data as given in patent publication US20250032590A1, “PARATHYROID HORMONE COMPOUNDS IN THE TREATMENT OF HYPOPARATHYROIDISM” (AMOLYT PHARMA, priority 2023, published 2025).
Entries after “also recorded” stand apart in the source; their conditions may differ. No end group written: not given here.

What was measured:
[1] = system: PTX mice; test: Serum calcium after single dosing in HP PTX mouse model (Example 1); type: in vivo; settings: compared with PTH (1-34)
Source text: In FIG. 1, the black line indicates the impact of PTX in mice, resulting in serum calcium levels well below normal levels.

[2] = system: TPTX rats; test: Serum calcium and phosphate, 28-day daily sc dosing in HP TPTX rat model (Example 2); type: in vivo; settings: 7.7 μg/kg/day
Procedure: Thyroid-parathyroidectomized, or TPTX, rats were treated with daily subcutaneous injection of AZP-3601 at doses ranging from 3.8 μg/kg/day to 30.7 μg/kg/day. Treatment was continued for 28 days. […] The increase in calcium accumulated over time (over the first 15 to 21 days), but became more constant thereafter, indicating the development of a steady-state effect (FIG. 2). Due to the cumulative effect, lower doses of AZP-3601 were required to eventually increase blood calcium levels into the normal range as compared to the dose required with a single injection.

[3] = system: TPTX rats; test: Urinary calcium, repeated daily sc dosing in HP TPTX rat model (Example 4); type: in vivo; settings: 30.7 μg/kg/day
Procedure: To examine the effect of repeated dosing with AZP-3601 on urinary calcium levels, TPTX rats were treated with daily subcutaneous injection of AZP-3601 with doses ranging from 3.8 to 30.7 μg/kg/day. As additional controls, separate groups of TPTX rats received daily injections of either natural PTH (1-84) or the vehicle, and a group of normal (with intact thyroid and parathyroid glands, or sham) rats were injected with vehicle. […] The observed increase in urinary calcium excretion with the high dose was a normal kidney response to clear excess blood calcium (FIG. 4).

[4] = Plasma detectability after single injection in cynomolgus monkeys; type: in vivo, cynomolgus monkey
Procedure: To further examine how the potent and sustained biological activity induced by AZP-3601 could translate into potential clinical benefit for […] patients, its activity was examined in normal cynomolgus monkeys, a species much closer to humans and the most relevant for first in human dose-selection. Single injections of AZP-3601 were administered to normal cynomolgus monkeys. […] The dissociation between pharmacokinetic profile and pharmacodynamic effect is due to the short circulating half-life of AZP-3601 as opposed to the prolonged signaling caused by AZP-3601's potent interaction with the R^0 conformation of the PTH1 receptor.

[5] = system: Cynomolgus monkeys; test: 13-week daily sc study in non-human primates: ex-vivo BMD (DXA), bone histopathology (Example 8); parameters: species or system cynomolgus monkey; settings: Cynomolgus monkeys, 1, 2.5 or 10 μg/kg daily sc, 13 weeks
Procedure: (§1) To further examine the effect of chronic AZP-3601 treatment on bone, both 13-week and 39-week studies were conducted in non-human primates (NHP), which are considered a relevant species with regard to AZP-3601 effects on serum calcium. Groups of 3 or 4 Cynomolgus monkeys of each sex were given daily subcutaneous injections of either vehicle or AZP-3601 at doses of 1, 2.5 or 10 μg/kg for either 13 or 39 weeks, as outlined in Table 2.
• Ex-vivo bone mineral density (BMD) by dual-energy X-ray absorptiometry (DXA) at week 13; • Histopathological examination of bone at week 13.
(§2) At the end of the 13-week study, right femur, right tibia and the L4 lumbar vertebra were collected from 3 animals/group/sex and bone mineral density (BMD) was measured by dual-energy X-ray absorptiometry. The left femur was submitted to histopathological examination. […] In the 39-week study, blood samples were collected from 4 animals/group/sex prior to and during weeks 4, 8, 13, 26 and 39 of treatment for measurement of bone biomarkers. In-life BMD of left femur, left tibia and L4 lumbar vertebra was measured by quantitative computed tomography (qCT) prior to and during weeks 26 and 39 of treatment (FIGS. 9A, 9B, 9C, 9D, 9E and 9F). At the end of the treatment period, femurs were processed for histopathological examination.

[6] = system: Cynomolgus monkeys; test: 39-week daily sc study in non-human primates: bone biomarkers, BMD (qCT), histopathology (Example 8); type: in vivo, cynomolgus monkey
Procedure: as §1
• Serum bone biomarkers at baseline and weeks 4, 8, 13, 26 and 39; • In-life BMD by quantitative computed tomography (qCT) at baseline and weeks 26 and 39; • Histopathological examination of bone at week 39.
as §2
Prior to treatment, BMD was homogeneous among all groups for all the three bone sites examined.

[7] = system: subjects with hypoparathyroidism (HP); test: Open-label multiple ascending dose study plus 2-month extension in subjects with hypoparathyroidism (Examples 10, 11); type: in vivo, human
Source text: Part C: Part C of the assessment was an open-label multiple ascending dose (MAD) study in male or female subjects with hypoparathyroidism (HP) who are on standard or care treatment (treatment with oral calcium and active vitamin D) to evaluate the safety and tolerability, PK, and PD of AZP-3601. Up to 2 cohorts of approximately 12 patients each were planned for this part of the study. Prior to the treatment period, there was an optimization period of up to 8 weeks during which doses of oral calcium and active vitamin D were adjusted to achieve a baseline target range of albumin-corrected serum calcium (7.8 to 9.0 mg/dL, ie, 1.95 to 2.25 mmol/L) and therefore ensuring a close baseline for all patients. During this optimization period, any serum 25-hydroxy vitamin D (native vitamin D) and/or magnesium deficiencies were corrected. During the treatment period, patients in Part C received AZP-3601 for 28 days as daily sc abdominal injections (with rotation of injection sites every dosing day). Doses of oral calcium and active vitamin D supplements were reduced during the initial 14 days of treatment while maintaining albumin-corrected serum calcium in the target range (7.8 to 9.0 mg/dL, ie, 1.95 to 2.25 mmol/L). Reductions of both oral calcium and active vitamin D supplements were performed using a staged approach until the active vitamin D dose were eliminated and the oral calcium dose were reduced to or below 500 mg/day. Based on animal data, serum calcium was expected to increase progressively following repeated administration of AZP-3601 and PD steady state was expected to be observed within the first 5 days of dosing. Staggered reductions of doses of oral calcium and active vitamin D supplements were therefore performed at near-steady state based on the predose albumin-corrected serum calcium value. The following treatments are administered in Part C in an open-label fashion: • Cohort C1: multiple sc doses of 20 mg AZP-3601 (n=12) qd from Day 1 to Day 28 (dose increase of AZP-3601 to 40 mg was allowed from Day 14 onwards) • Cohort C2: multiple sc doses of a fixed dose of 10 mg AZP-3601 (n=12) qd from Day 1 to Day 28 (dose of AZP-3601 may be increased at a fixed dose of 20 mg from Day 14 onwards)
During the extension phase, patients had their AZP-3601 dose increased in increments of 10 mg to a maximum dose of 60 mg (Cohort 1) and of 80 mg (Cohort 2).
The extension phase started immediately following Day 28 visit of the Main treatment period. Patients received AZP-3601 for 56 days (2 months) as daily sc injections from Day 29 onwards (with rotation of injection sites each day of administration). The goal was to optimize AZP-3601 dosing across a dose range while doses of oral calcium and active vitamin D were as low as safely possible and albumin-corrected serum calcium was maintained within the target range of 7.8 to 9.0 mg/dL (1.95 to 2.25 mmol/L). For patients who were taking minimal or no supplemental calcium (≤500 mg/day) and no vitamin D on Day 28, the AZP-3601 dose from the previous 14 days of treatment (Part C, Main Treatment Period) was maintained and adjusted when needed during the Extension Phase. For patients who were still taking active vitamin D and/or more than 500 mg/day of oral calcium on Day 28, a progressive reduction of supplements was carried out while increasing the dose of AZP-3601. […]

[8] = system: non-human primates; settings: 10.7 μg/kg or 42.7 μg/kg; cited from earlier work
[9] = Cynomolgus monkeys, 1, 2.5 or 10 μg/kg daily sc, weeks 4 to 39
[10] = HP subjects of both cohorts, 84 days
[11] = HP subjects, various bone sites, including patients with osteopenia

With “AVAEIQLMHQRAKWIQDARRRAFLHKLIAEIHTAEI [AZP-3601, M-PTH(1-14)/PTHrP(15-36)]” the half-life [1] was “equally short half-life as PTH (1-34)”, the “change in bone at the optimal dose” value [2] was “without producing any significant change in bone” and the “serum calcium at the highest dose” value [3] was “induced overt hypercalcemia”. For the same sequence, the “detectability in plasma post-dosing” value [4] was “detectable in plasma for only up to one hour post-dosing”, the “BMD of femur, tibia and L4 lumbar vertebra by DXA” value [5] was “no evidence of any treatment-related effect” and the “histopathological examination of femur” value [5] was “no evidence of any treatment-related effect”. The “anabolic bone biomarker P1NP” value [6, 9] was “no treatment-related changes; also recorded: no significant effect on either anabolic or catabolic bone biomarkers”, the “catabolic bone biomarker CTx” value [6, 9] was “no treatment-related changes; also recorded: no significant effect on either anabolic or catabolic bone biomarkers” and the “in-life BMD of femur, tibia and L4 lumbar vertebra by qCT” value ([6]; Cynomolgus monkeys, 39-week study, versus pre-treatment values) was “no statistically significant changes in BMD”. The “histological examination of the femur” value ([6]; Cynomolgus monkeys, week 39) was “no noteworthy findings”, the “bone mineral density (BMD)” value [7, 10] was “remains stable” and the “trabecular bone score (TBS)” value [7, 10] was “remains stable”. The “mean bone markers relative to upper limit of normal” value ([7]; HP subjects, 84 days) was “never increased either mean bone marker above the upper limit of normal level”, the T-score [7, 11] was “remain stable” and the Z-score [7, 11] was “remain stable”. The “serum calcium at highest dose levels” value [8] was “induced significant hypercalcemia”.
